The record followed here is patent US11976057B2, “MrgX2 antagonists” (GlaxoSmithKline Intellectual Property Development Limited, priority 2020, dated 2024).

Molecules are shown by their SMILES.

In the test the target is T1, human MRGPRX2 (Homo sapiens, UniProt Q96LB1).
T1 sequence (Q96LB1 1-330): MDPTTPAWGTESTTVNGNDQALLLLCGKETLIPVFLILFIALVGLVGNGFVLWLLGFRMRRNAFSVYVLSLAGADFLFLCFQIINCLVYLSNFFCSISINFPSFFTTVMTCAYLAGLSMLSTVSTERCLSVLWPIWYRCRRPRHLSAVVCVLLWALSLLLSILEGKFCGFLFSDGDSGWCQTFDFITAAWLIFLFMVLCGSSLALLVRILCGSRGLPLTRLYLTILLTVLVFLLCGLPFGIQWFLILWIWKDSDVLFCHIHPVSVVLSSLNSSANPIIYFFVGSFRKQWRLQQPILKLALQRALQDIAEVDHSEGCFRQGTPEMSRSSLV
Put plainly: Ca2+ mobilization assay (FLIPR TETRA): inhibition of Cortistatin-14 mediated MRGPRX2 activation. For orientation: Calcium flux is commonly read through the fluorescence of an indicator in the cells.

As for `C[C@@H](C(=O)Nc1ccc(C2CC2)cn1)N1CCC(F)(F)[C@@H](c2ccc(=O)[nH]c2)C1` [Example 15, (S)-N-(5-cyclopropyl-pyridin-2-yl)-2-((S)-4,4-difluoro-3-(6-oxo-1,6-dihydropyridin-3-yl)piperidin-1-yl)propanaraide], the 50% inhibitory concentration (IC50) (commonly the point on the concentration scale where inhibition reaches its midpoint) lay within 10 to 100 nM.

In turn, `Cc1cccc(-c2ccc(NC(=O)[C@H](C)N3CCC(F)(F)[C@@H](c4ccc(=O)[nH]c4)C3)nc2)c1` [Example 16, (S)-2-((S)-4,4-difluoro-3-(6-oxo-1,6-dihydropyridin-3-yl)piperidin-1-yl)-N-(5-(m-tolyl)pyridin-2-yl)propanamide] had a 50% inhibitory concentration (IC50) of 10 to 100 nM.

`C[C@@H](C(=O)Nc1ccc2oc(C3CC3)nc2n1)N1CCC(F)(F)[C@@H](c2ccc(=O)[nH]c2)C1` [Example 17, (S)-N-(2-cyclopropyl-oxazolo[4,5-b]pyridin-5-yl)-2-((S)-4,4-difluoro-3-(6-oxo-1,6-dihydropyridin-3-yl)piperidin-1-yl)propanamide] showed an IC50 of 100 to 3160 nM.

As for `C[C@@H](C(=O)Nc1ccc(C2CCC2)cn1)N1CCC(F)(F)[C@@H](c2ccc(=O)[nH]c2)C1` [Example 18, (S)-N-(5-cyclobutylpyridin-2-yl)-2-((S)-4,4-difluoro-3-(6-oxo-1,6-dihydropyridin-3-yl)piperidin-1-yl)propanamide], the IC50 is 100 to 3160 nM.

`C[C@@H](C(=O)Nc1ccc(Oc2ccccc2)nn1)N1CCC(F)(F)[C@@H](c2ccc(=O)[nH]c2)C1` [Example 19, 2-((S)-4,4-difluoro-3-(6-oxo-1,6-dihydropyridin-3-yl)piperidin-1-yl)-N-(6-phenoxy-pyridazin-3-yl)propanamide] displayed an IC50 of 100 to 3160 nM.

In turn, `Cc1ccccc1Oc1ccc(NC(=O)[C@H](C)N2CCC(F)(F)[C@@H](c3ccc(=O)[nH]c3)C2)nn1` [Example 20] came in with a half-maximal inhibitory concentration (IC50) of 100 to 3160 nM.

`CC(C(=O)Nc1ccc(CCC2CC2)cn1)N1CCC(F)(F)[C@@H](c2ccc(=O)[nH]c2)C1` (stereo partly drawn) [Example 21, N-(5-(2-cyclopropylethyl)pyridin-2-yl)-2-((S)-4,4-difluoro-3-(6-oxo-1,6-dihydropyridin-3-yl)piperidin-1-yl)propanamide] showed an IC50 of 10 to 100 nM.

Compound `C[C@@H](C(=O)Nc1ccc(OCc2ccccc2)cn1)N1CCC(F)(F)[C@@H](c2ccc(=O)[nH]c2)C1` [Example 22, (S)-N-(5-(benzyloxy)pyridin-2-yl)-2-((S)-4,4-difluoro-3-(6-oxo-1,6-dihydropyridin-3-yl)piperidin-1-yl)propanamide] displayed an IC50 of 100 to 3160 nM.

With `C[C@@H](C(=O)Nc1ccc(-c2ccccc2)cn1)N1CCC(F)(F)[C@@H](c2ccc(=O)[nH]c2)C1` [Example 23, (S)-2-((S)-4,4-difluoro-3-(6-oxo-1,6-dihydropyridin-3-yl)piperidin-1-yl)-N-(5-phenylpyridin-2-yl)propanamide], the IC50 is 100 to 3160 nM.

Consider `CC(C(=O)Nc1ccc(OC2CCCCC2)cn1)N1CCC(F)(F)[C@@H](c2ccc(=O)[nH]c2)C1` (stereo partly drawn) [Example 24, N-(5-(cyclohexyloxy)pyridin-2-yl)-2-((S)-4,4-difluoro-3-(6-oxo-1,6-dihydropyridin-3-yl)piperidin-1-yl)propanamide], for which the IC50 fell in the range of 100 to 3160 nM.

`C[C@@H](C(=O)Nc1ccc2cc(C3CC3)ccc2n1)N1CCC(F)(F)[C@@H](c2ccc(=O)[nH]c2)C1` [Example 25, (S)-N-(6-cyclopropylquino-lin-2-yl)-2-((S)-4,4-difluoro-3-(6-oxo-1,6-dihydropyridin-3-yl)piperidin-1-yl)propanamide] yielded a half-inhibitory concentration (IC50) of 100 to 3160 nM.

In turn, `CC(C)Oc1ccc(NC(=O)C(C)N2CCC(F)(F)[C@@H](c3ccc(=O)[nH]c3)C2)nc1` (stereo partly drawn) [Example 26, 2-((S)-4,4-difluoro-3-(6-oxo-1,6-dihydropyridin-3-yl)piperidin-1-yl)-N-(5-isopropoxy-pyridin-2-yl)propanamide] returned an IC50 of 100 to 3160 nM.

The compound `CC(C(=O)Nc1ccc(CC2CCCCC2)cn1)N1CCC(F)(F)[C@@H](c2ccc(=O)[nH]c2)C1` (stereo partly drawn) [Example 27, N-(5-(cyclohexyl-methyl)pyridin-2-yl)-2-((S)-4,4-difluoro-3-(6-oxo-1,6-dihydropyridin-3-yl)piperidin-1-yl)propanamide] showed an IC50 of 100 to 3160 nM.

The compound `C[C@@H](C(=O)Nc1ncc(OCC2CC2)cc1F)N1CCC(F)(F)[C@@H](c2ccc(=O)[nH]c2)C1` [Example 28, (S)-N-(5-(cyclopropyl-methoxy)-3-fluoropyridin-2-yl)-2-((S)-4,4-difluoro-3-(6-oxo-1,6-dihydropyridin-3-yl)piperidin-1-yl)propanamide] had an IC50 of 100 to 3160 nM.

In turn, `CC(C(=O)Nc1ccc(OCC2CCC2)cn1)N1CCC(F)(F)[C@@H](c2ccc(=O)[nH]c2)C1` (stereo partly drawn) [Example 30, N-(5-(cyclobutyl-methoxy)pyridin-2-yl)-2-((S)-4,4-difluoro-3-(6-oxo-1,6-dihydropyridin-3-yl)piperidin-1-yl)propanamide] came in with a concentration for half-maximal inhibition (IC50) of 100 to 3160 nM.

Compound `CC(Oc1ccc(NC(=O)C(C)N2CCC(F)(F)[C@@H](c3ccc(=O)[nH]c3)C2)nc1)C1CC1` (stereo partly drawn) [Example 31, N-(5-(1-cyclopropyl-ethoxy)pyridin-2-yl)-2-((S)-4,4-difluoro-3-(6-oxo-1,6-dihydropyridin-3-yl)piperidin-1-yl)propanamide] displayed an IC50 of 100 to 3160 nM.

On to `C[C@@H](C(=O)Nc1ccc2c(n1)CN(C1CC1)C2)N1CCC(F)(F)[C@@H](c2ccc(=O)[nH]c2)C1` [Example 32, (S)-N-(6-cyclopropyl-6,7-dihydro-5H-pyrrolo[3,4-b]pyridin-2-yl)-2-((S)-4,4-difluoro-3-(6-oxo-1,6-dihydropyridin-3-yl)piperidin-1-yl)propanamide], for which the IC50 was 100 to 3160 nM.

Turning to `CC(C(=O)Nc1ccc(CC2CCCC2)cn1)N1CCC(F)(F)[C@@H](c2ccc(=O)[nH]c2)C1` (stereo partly drawn) [Example 33, N-(5-(cyclopentyl-methyl)pyridin-2-yl)-2-((S)-4,4-difluoro-3-(6-oxo-1,6-dihydropyridin-3-yl)piperidin-1-yl)propanamide], the IC50 fell in the range of 100 to 3160 nM.

As to `C[C@@H](C(=O)Nc1cc2ccccc2cn1)N1CCC(F)(F)[C@@H](c2ccc(=O)[nH]c2)C1` [Example 34, (S)-2-((S)-4,4-difluoro-3-(6-oxo-1,6-dihydropyridin-3-yl)piperidin-1-yl)-N-(isoquinolin-3-yl)propanamide], the half-maximal inhibitory concentration (IC50) lay in the range of 100 to 3160 nM.

On to `C[C@@H](C(=O)Nc1ncc(OCC2CC2)cn1)N1CCC(F)(F)[C@@H](c2ccc(=O)[nH]c2)C1` [Example 35, (S)-N-(5-(cyclopropyl-methoxy)pyrimidin-2-yl)-2-((S)-4,4-difluoro-3-(6-oxo-1,6-dihydropyridin-3-yl)piperidin-1-yl)propanamide], for which the IC50 was in the range of 100 to 3160 nM.

In turn, `CC(C(=O)Nc1ccc(OCC2CC2(F)F)cn1)N1CCC(F)(F)[C@@H](c2ccc(=O)[nH]c2)C1` (stereo partly drawn) [Example 36, 2-((S)-4,4-difluoro-3-(6-oxo-1,6-dihydropyridin-3-yl)piperidin-1-yl)-N-(5-((2,2-difluorocyclo-propyl)methoxy)pyridin-2-yl)propanamide] showed an IC50 of 100 to 3160 nM.

`C[C@@H](C(=O)Nc1ccc(C(=O)OC2CCC2)cn1)N1CCC(F)(F)[C@@H](c2ccc(=O)[nH]c2)C1` [Example 37, cyclobutyl 6-((S)-2-((S)-4,4-difluoro-3-(6-oxo-1,6-dihydropyridin-3-yl)piperidin-1-yl)propanamido) nicotinate] displayed a concentration for half-maximal inhibition (IC50) of 100 to 3160 nM.
